Experimental data reported in PubChem BioAssay AID248 (DTP/NCI, 2004).
Where “and” joins values, the source holds several entries; their conditions need not be identical. Equal values may be shown once. Inconclusive results and toxic doses are left out. Rule as the data show it: active = T/C of 150% or more; inactive = T/C below 125%.

Tested on: L1210 leukemia ip in BDF1 mice, survival T/C
Assay: NCI In Vivo Anticancer Drug Screen. Data for tumor model L1210 Leukemia (intraperitoneal) in B6D2F1 (BDF1) mice
Details: endpoint: mean survival time, higher = longer survival
Outline: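 Transplanted-tumor mice were given test agent; controls received vehicle only. Survival readings from the two groups were divided (treated over control).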

[1] = dose: 6.25 mg/kg/injection, schedule: Q01DX009 (ip), vehicle: saline with Tween-80
[2] = dose: 12.5 mg/kg/injection, schedule: Q01DX009 (ip), vehicle: saline with Tween-80
[3] = dose: 100.0 mg/kg/injection, schedule: Q04DX002 (ip), vehicle: saline with Tween-80
[4] = dose: 200.0 mg/kg/injection, schedule: Q04DX002 (ip), vehicle: saline with Tween-80
[5] = dose: 400.0 mg/kg/injection, schedule: Q04DX002 (ip), vehicle: saline with Tween-80
[6] = dose: 25.0 mg/kg/injection, schedule: Q01DX009 (ip), vehicle: saline with Tween-80
[7] = dose: 50.0 mg/kg/injection, schedule: Q01DX009 (ip), vehicle: saline with Tween-80
[8] = dose: 100.0 mg/kg/injection, schedule: Q01DX009 (ip), vehicle: Klucel (hydroxypropylcellulose) (HPC)
[9] = dose: 200.0 mg/kg/injection, schedule: Q01DX009 (ip), vehicle: Klucel (hydroxypropylcellulose) (HPC)
[10] = dose: 400.0 mg/kg/injection, schedule: Q01DX009 (ip), vehicle: Klucel (hydroxypropylcellulose) (HPC)
[11] = dose: 100.0 mg/kg/injection, schedule: Q01DX001 (ip), vehicle: saline
[12] = dose: 200.0 mg/kg/injection, schedule: Q01DX001 (ip), vehicle: saline
[13] = dose: 400.0 mg/kg/injection, schedule: Q01DX001 (ip), vehicle: saline
[14] = dose: 100.0 mg/kg/injection, schedule: Q04DX003 (ip), vehicle: saline
[15] = dose: 200.0 mg/kg/injection, schedule: Q04DX003 (ip), vehicle: saline
[16] = dose: 100.0 mg/kg/injection, schedule: Q01DX009 (ip), vehicle: saline
[17] = dose: 200.0 mg/kg/injection, schedule: Q01DX009 (ip), vehicle: saline
[18] = dose: 400.0 mg/kg/injection, schedule: Q04DX003 (ip), vehicle: saline
[19] = dose: 100.0 mg/kg/injection, schedule: Q04DX003 (ip), vehicle: Klucel (hydroxypropylcellulose) (HPC)
[20] = dose: 200.0 mg/kg/injection, schedule: Q04DX003 (ip), vehicle: Klucel (hydroxypropylcellulose) (HPC)
[21] = dose: 400.0 mg/kg/injection, schedule: Q04DX003 (ip), vehicle: Klucel (hydroxypropylcellulose) (HPC)
[22] = dose: 400.0 mg/kg/injection, schedule: Q01DX009 (ip), vehicle: saline

Measured: T/C

O=P1(O)[O][Sn]([c]2ccccc2)([c]2ccccc2)[O]1
inactive: [1] 97 % of control | [2] 97 % of control

N#CC1(NC(Cc2ccccc2)c2ccccc2)CCCCCCCCCCC1 (stereo not drawn)
inactive: [3] 101 % of control | [4] 94 % of control | [5] 97 % of control

COCC1OC(OC(=O)c2ccccc2)C(OC(=O)c2ccccc2)C(OC(=O)c2ccccc2)C1OC (stereo not drawn)
inactive: [2] 97 % of control | [6] 95 % of control | [7] 93 % of control

Cc1ccc(N=Nc2ccc(C)cc2NC(=O)Nc2ccccc2C(F)(F)F)cc1
inactive: [8] 92 % of control | [9] 90 % of control | [10] 90 % of control

CCCCCCCCC(CO)(CCCCCCC)C(=O)O (stereo not drawn)
inactive: [3] 88 % of control | [4] 88 % of control

O=C(NC1CCCCC1)Oc1c(Cl)cc(Cl)c(Cl)c1[N+](=O)[O-]
inactive: dose: 25.0 mg/kg/injection, schedule: Q04DX002 (ip), vehicle: saline with Tween-80 92 % of control | dose: 50.0 mg/kg/injection, schedule: Q04DX002 (ip), vehicle: saline with Tween-80 99 % of control | [3] 99 % of control and 114 % of control

Cc1cc(=O)n2c(n1)Nc1ccccc1C2
inactive: [11] 87 % of control | [12] 93 % of control | [13] 87 % of control

CCCCNc1c(C(=O)OCC)cnc2c1cnn2CC
inactive: dose: 12.0 mg/kg/injection, schedule: Q01DX009 (ip), vehicle: Klucel (hydroxypropylcellulose) (HPC) 100 % of control | dose: 25.0 mg/kg/injection, schedule: Q01DX009 (ip), vehicle: Klucel (hydroxypropylcellulose) (HPC) 96 % of control | dose: 50.0 mg/kg/injection, schedule: Q01DX009 (ip), vehicle: Klucel (hydroxypropylcellulose) (HPC) 106 % of control | dose: 75.0 mg/kg/injection, schedule: Q01DX009 (ip), vehicle: Klucel (hydroxypropylcellulose) (HPC) 96 % of control

CCCCN(CCCC)C(=O)CCC
inactive: [14] 102 % of control | [15] 95 % of control

CCSC1=C(SCC)C(=O)C(SCC)=C(SCC)C1=O
inactive: dose: 3.1 mg/kg/injection, schedule: Q01DX009 (ip), vehicle: saline with Tween-80 110 % of control | [1] 105 % of control | [2] 105 % of control | [6] 91 % of control | [7] 103 % of control

CCCCc1[nH]ccc2c(C)c3nc4ccccc4c3cc12
inactive: dose: 50.0 mg/kg/injection, schedule: Q01DX001 (ip), vehicle: saline 96 % of control | [11] 97 % of control | [12] 96 % of control | [13] 97 % of control

CP1(=S)CCC(O)(c2ccccc2)CC1 (stereo not drawn)
inactive: [5] 88 % of control

CC(=O)NNC(N)=S
inactive: dose: 100.0 mg/kg/injection, schedule: Q04DX002 (ip), vehicle: Klucel (hydroxypropylcellulose) (HPC) 87 % of control | dose: 200.0 mg/kg/injection, schedule: Q04DX002 (ip), vehicle: Klucel (hydroxypropylcellulose) (HPC) 87 % of control | dose: 400.0 mg/kg/injection, schedule: Q04DX002 (ip), vehicle: Klucel (hydroxypropylcellulose) (HPC) 97 % of control

O=[N+]([O-])c1ccc(SCCCN2CCCCC2)c([N+](=O)[O-])c1
inactive: dose: 50.0 mg/kg/injection, schedule: Q01DX001 (ip), vehicle: carboxymethylcellulose (CMC) 96 % of control

CC1CCCC(C)N1C(=O)Nc1cccc(F)c1 (stereo not drawn)
inactive: [8] 99 % of control | [9] 101 % of control | [10] 94 % of control

CC(C)CCCC(C)C1CCC2C3CC=C4CC(OC(=O)Nc5ccc(S(=O)(=O)N(C)C)cc5)CCC4(C)C3CCC12C (stereo not drawn)
inactive: dose: 100.0 mg/kg/injection, schedule: Q01DX001 (sc), vehicle: steriod suspending solution 103 % of control | dose: 200.0 mg/kg/injection, schedule: Q01DX001 (sc), vehicle: steriod suspending solution 103 % of control | dose: 400.0 mg/kg/injection, schedule: Q01DX001 (sc), vehicle: steriod suspending solution 103 % of control

Cc1ccc(NC(=O)Oc2cc(C)ccc2C(C)C)cc1
inactive: [8] 113 % of control | [9] 94 % of control | [10] 97 % of control

N=C(N)CC(=O)CC(=N)N
inactive: dose: 50.0 mg/kg/injection, schedule: Q01DX009 (ip), vehicle: saline 91 % of control | [16] 91 % of control | [17] 98 % of control

c1ccc(P2CCc3[nH]c4ccccc4c3C2)cc1 (stereo not drawn)
inactive: dose: 100.0 mg/kg/injection, schedule: Q01DX009 (ip), vehicle: saline with Tween-80 97 % of control | [14] 100 % of control | dose: 200.0 mg/kg/injection, schedule: Q01DX009 (ip), vehicle: saline with Tween-80 110 % of control | [15] 96 % of control | dose: 400.0 mg/kg/injection, schedule: Q01DX009 (ip), vehicle: saline with Tween-80 100 % of control | [18] 113 % of control

CCOC(=O)c1c(Cl)c(Cl)c(C(=O)OCC)c(Cl)c1Cl
inactive: dose: 100.0 mg/kg/injection, schedule: Q01DX009 (ip), vehicle: saline sonified 101 % of control | [19] 101 % of control | dose: 200.0 mg/kg/injection, schedule: Q01DX009 (ip), vehicle: saline sonified 97 % of control | [20] 95 % of control | dose: 400.0 mg/kg/injection, schedule: Q01DX009 (ip), vehicle: saline sonified 95 % of control | [21] 92 % of control

CN1C(=O)OC2(CCN(Cc3ccc([N+](=O)[O-])o3)CC2)C1=O
inactive: [19] 98 % of control | [20] 96 % of control | [21] 98 % of control

O=C(/C=C/c1ccc(Cl)cc1)c1ccc(Br)cc1
inactive: [8] 94 % of control | [9] 94 % of control | [10] 92 % of control

CNC(=O)NO
inactive: dose: 50.0 mg/kg/injection, schedule: Q01DX Z (ip), vehicle: water 112 % of control | dose: 200.0 mg/kg/injection, schedule: Q01DX Z (ip), vehicle: water 97 % of control | dose: 400.0 mg/kg/injection, schedule: Q01DX Z (ip), vehicle: water 115 % of control

COc1ccc(N=NNc2ccc(OC)cc2)cc1
inactive: [1] 101 % of control | [2] 102 % of control | dose: 12.5 mg/kg/injection, schedule: Q04DX003 (ip), vehicle: saline with Tween-80 97 % of control | [6] 98 % of control and 90 % of control | dose: 25.0 mg/kg/injection, schedule: Q04DX003 (ip), vehicle: saline with Tween-80 95 % of control | dose: 50.0 mg/kg/injection, schedule: Q04DX003 (ip), vehicle: saline with Tween-80 97 % of control | dose: 100.0 mg/kg/injection, schedule: Q04DX003 (ip), vehicle: saline with Tween-80 98 % of control

Cc1ccc(C)c(NC(=O)Oc2ccc(-c3ccccc3)cc2)c1
inactive: [16] 96 % of control | [14] 109 % of control | [17] 95 % of control | [15] 110 % of control | [22] 95 % of control | [18] 101 % of control

COc1cc2c(cc1OC)C(=O)C(Br)N(S(=O)(=O)c1ccc(C)cc1)CC2 (stereo not drawn)
inactive: [16] 96 % of control | [17] 97 % of control | [22] 93 % of control
